According to patent US20120172375A1, “COMPOUNDS AND METHODS OF PROMOTING OLIGODENDROCYTE PRECURSOR DIFFERENTIATION” (priority 2008, published 2012):
Several values for one entry are separate records, joined by “and”; a condition that tells them apart may be missing. Equal entries are not always repeated. Entries after “also recorded” stand apart in the source; their conditions may differ.

Legend:
[1] = system: oligodendrocyte progenitor cells; experiment: Immunocytochemistry for PLP/DM20 and MBP, count of differentiated cells; assay type: cell-based, mouse; conditions: for cell morphology after long-term exposure: compound B at the lowest concentrations (0.1 μM)
Protocol: (§1) Immunodetection of oligodendrocyte and myelin markers was performed. In brief, Oligodendrocyte cells plated on PDL-coated dishes were initially fixed in 2% paraformaldehyde (PFA) for 10 min at room temperature (RT) and then 4% PFA for 15 min, washed three times with PBS and permeabilized with 0.1% Triton X100 for 10 min at RT. After blocking with 3% BSA in PBS for 60 min a RT, the cells were incubated with primary antibodies at the indicated concentrations overnight (ON) at 4° C. The cells were washed three times with cold PBS incubated with secondary antibodies for 45 min at RT, and washed again before mounting. Immunostaining of tissue sections prepared with a sliding microtome (30 μm) was performed. In brief, tris buffered saline (TBS) containing 100 nM Sodium fluoride (TBSS) was used the all dilutions and washes. For antigen retrieval, sections were washed 3 times in TBSS, incubated in 5% methanol and 3% H2O2 for 10 min, washed 2 times, and then incubated in 10% Triton X-100 for 20 min. Blocking of unspecific bonds was performed by incubating the tissue sections with 10% NGS for 1 hr. Primary antibodies were diluted in 3% BSA containing 0.02% Triton X-100 and sections were incubated overnight in this solution. The next day the sections were washed 3 times in TBSS, followed by 1 hr incubation in secondary antibodies (1:1000) at 4° C. After several washes, the sections were mounted using Vectashield (Vector Laboratories, Burlingame, Calif.). Visualization of immunostained cells and tissue was performed on a Leica DMR (Wetzlar, Germany) or a Leica SP5 confocal microscope.
The primary screening to select positive compounds was performed at a standard concentration of 10 μM with cell morphology analysis 48 hrs after treatment. Dose response curves at 48 hrs treatment time were performed to determine the minimum concentration compounds A, A-7 and B needed to induce cell maturation. We assessed oligodendrocyte differentiation by cell morphology changes, green fluorescence in cells generated from or Plp-EGFP transgenic mouse, immunostaining for myelin proteins and western blot for expression of the oligodendrocyte markers PLP/DM20 and 2′,3′, cyclic nucleotide 3′ phosphohydrolase (CNPase). EC50 values were also calculated based on results of western blot for myelin proteins and subsequent band densitometry analysis. Additionally, we followed cell differentiation induced over long time exposure to compounds A and B (7 days, 0.1-10 μM).
Compound A-7-induced oligodendrocyte progenitor maturation was also analyzed in comparison to control cells in immunostaining experiments to detect the myelin proteins MBP and PLP. Positive cells for these markers showing processes formation and membranous structures were counted versus total cells and counterstained with the nuclear dye Dapi after 48 hrs (Tables 3 and 4) and 7 days treatment with 0.1, 1 or 10 μM compound A-7 (FIG. 2, B).

[2] = system: oligodendrocyte progenitor cells; experiment: Cell toxicity and viability (MTT, cell death); assay type: cell-based, mouse; conditions: for cell toxicity and viability: concentrations below 50 μM
Protocol: Differentiation induced by selected compounds was further validated by fluorescence microscopy in cells generated from our Plp-EGFP transgenic mouse. Increased fluorescence in treated oligodendrocyte progenitor was indicative of cell maturation and was again scored following the same scale. 13 positive compounds were identified after secondary screening (FIG. 1). These were analyzed for cell toxicity assays by MTT were yellow 3-(4,5-Dimethylthiazol-2-yl)-2,5-diphenyltetrazolium bromide, a tetrazole (MTT) is reduced to purple formazan in the mitochondria of living cells, showing a solution color change measurable by OD620-590 (Data not shown). Further oligodendrocyte progenitor maturation in response to selected compounds was assessed by induction of myelin protein expression as determined by immunocytochemistry and western blot.

[3] = system: cuprizone-fed C57B1/6J mice; experiment: Myelin protein (PLP/DM20, MOG) immunostaining densitometry in cuprizone-demyelinated mice; assay type: in vivo; conditions: i.p., two doses
Protocol: For in vivo experiments in mice, the cuprizone-mediated demyelination model was implemented as described elsewhere, (Sun et al., 2006; Wu et al., 2008). In brief, 9 week-old C57B1/J6 mice were fed with cuprizone supplemented chow (0.3%, Harlan) during 4-6 weeks. At the end of this period, while the mice were still on cuprizone diet, the animals were injected I.P. with the indicated concentrations of small molecules dissolved in DMSO. 72 hrs later, a second dose was administered and at that point the food was changed to regular chow. 48 hr after the second dose, the animals were sacrificed perfused with 4% paraformaldehyde (PFH) and the brain tissue processed or immunohistochemistry.
as §1, with “After several washes, the sections were mounted using Vectashield (Vector Laboratories, Burlingame, Calif.). Visualization of immunostained cells and tissue was performed on a Leica DMR (Wetzlar, Germany) or a Leica SP5 confocal microscope.” left out

Row | Compound | percentage of differentiated cells compared to A treated cells ([1]; 10 μM) [%] | concentration at which induction of oligodendrocyte differentiation reached maximum levels ([1]; 48 hrs and 7 days treatment) [µM] | cell morphology after long-term exposure ([1]; 7 days after treatment) | Differentiated Cells (IC, % of Control) ([1]; Table 3, 10 μM, 48 hrs, 10 µM) | Differentiated Cells (IC, % of Control) ([1]; Table 3, 10 μM, 48 hrs, listed as drawing 48, 10 µM) | Differentiated Cells (IC, % of Control) ([1]; Table 4, 1 μM, 1 µM) | Differentiated Cells (IC, % of Control) ([1]; Table 4, 10 μM) | cell toxicity and viability [2] | effect on myelin protein expression / remyelination enhancement [3] | immunostaining for PLP and MBP: expression of myelin proteins ([1]; 10 μM, 48 hr (FIG. 1)) | differentiated cells, percentage of total cells ([1]; 7 days after treatment, 0.1-10 μM, control 9.5%) | Differentiated Cells (IC, % of Control) ([1]; Table 3, 10 μM, 48 hrs) | Differentiated Cells (IC, % of Control) ([1]; Table 4, 1 μM) | percentage of mature cells ([1]; 7 days, 10 μM) | concentrations with toxic effect (induction of cell death) [2] [µM] | concentrations with toxic effect (MTT cell viability) ([2]; MTT)
1 | CC(C)N1CCN(C(=O)COc2ccc(-c3ccccc3)cc2)CC1 [Compound A-7, 1-(Biphenyl-4-yloxy)acetyl-4-isopropylpiperazine] | 159.1 | 0.1 | formation of long-thick processes and major membranous structures | 296.1 % of Control | 296.1 ± 19 n = 4; p <0.05 % of Control | 343 % of Control and 343.2 ± 52.3 % of Control | 296 ± 38.06 % of Control | did not show significant detrimental effects | recovery of myelin protein expression | – | – | – | – | – | – | –
2 | CCS(=O)(=O)N1CCN(C(=O)COc2ccc(-c3ccccc3)cc2)CC1 [Compound A, 1-[(4-biphenylyloxy)acetyl]-4-(ethylsulfonyl)piperazine] | – | – | clear morphology changes; also recorded: formation of long-thick processes and major membranous structures | – | – | – | 289.3 ± 66.6 % of Control | did not show significant detrimental effects | recovery of myelin protein expression | increased expression | about 25% | 186.1 ± 44.8 n = 4; p <0.05 % of Control | 248.9 ± 47.5 % of Control | – | – | –
3 | O=[N+]([O-])c1ccc(F)c(NS(=O)(=O)c2ccc(F)cc2)c1 [Compound B, 4-fluoro-N-(2-fluoro-5-nitrophenyl)benzenesulfonamide] | – | – | clear morphology changes; also recorded: formation of long-thick processes and major membranous structures | – | – | – | – | – | did not detect any relevant effect | – | – | – | – | dropped to control levels | > 10 | higher than 1 μM
